In patent US6943026B1, “Antitumour vector constructs and methods” (Cyclacel Limited, priority 1995, dated 2005):

System: Saos-2 cells
Assay: GCV tolerance (toxicity of GCV alone to cells)
Format: cell-based, human
Details: 1.25×10^−5-6.2×10^−5M
Experimental: The GCV tolerance profile of Saos-2 cells was determined in parallel by treating the cells with various concentrations of GCV (ranging from 0.1 μmole to 2 mM).
The toxicity of the GCV to cells were analysed by subjecting the cells to various concentration of GCV (ranging from 0.1 μmole to 2 mM GCV at 37° C.) for 3 days. The remaining steps of the treatment were carried out as the tk-GCV assay.

With `Nc1nc(O)c2ncn(COC(CO)CO)c2n1` [Gancyclovir, Ganciclovir] the “effect on cell viability of gancyclovir by itself” value was “no effect”.
